According to the Deep4Chem optical property database:
Where “and” joins values, the source holds several entries; their conditions need not be identical. Equal values may be shown once.

Experiment: solvent given as SMILES

c1ccc(-c2nc(-c3ccccn3)[se]c2N(c2ccccc2)c2ccccc2)cc1
absorption maximum (in ClC(Cl)Cl): 406 nm

c1ccc2c(c1)Oc1ccccc1N2c1ccc2c(c1)c1ccccc1n1c3ccccc3nc21
absorption maximum (in Cc1ccccc1): 376 nm

CN(C)c1ccc(C=C2Oc3cccc(O)c3C2=O)cc1
absorption maximum (in CC#N): 449 nm

COc1cccc(-c2nc3c([nH]2)C2=CC(=O)S[C@]2(C)[C@@]2(C)SC(=O)C=C32)c1OC
absorption maximum (in CC#N): 397 nm

Cc1cc(C)c(C2=C3C=CC(c4ccc5c(ccc6ccccc65)c4)=[N+]3[B-](F)(F)n3c2ccc3-c2ccc3c(ccc4ccccc43)c2)c(C)c1
absorption maximum (in ClC(Cl)Cl): 579 nm

O=c1oc2c(ccc3ccccc32)nc1-c1ccccc1
absorption maximum (in CC#N): 396 nm
absorption maximum (in CCCCCC): 398 nm
absorption maximum (in CO): 396 nm
absorption maximum (in c1ccccc1): 396 nm

CC1(C)c2ccccc2N(c2ccccc2)c2ccc(-c3nc(-c4ccccc4)nc(-c4ccccc4)n3)cc21
absorption maximum (in Cc1ccccc1): 389.97 nm

O=c1oc2ccccc2cc1-c1cc2ccccc2o1
absorption maximum (in CC#N): 366 nm
absorption maximum (in CCOC(C)=O): 368 nm
absorption maximum (in CS(C)=O): 371 nm
absorption maximum (in Cc1ccccc1): 373 nm
absorption maximum (in O): 365 nm

CCCCOc1ccc2cc(-c3ccc(C)cc3)c(=O)oc2c1
absorption maximum (in C1CCOC1): 343 nm
absorption maximum (in CCCCCC): 338 nm
absorption maximum (in CCO): 344 nm
absorption maximum (in CS(C)=O): 346 nm

COC(=O)/C(C#N)=c1\s/c(=c2/s/c(=C(/C#N)C(=O)OC)c3cc(-c4ccc(F)cc4)sc23)c2sc(-c3ccc(F)cc3)cc12
absorption maximum (in Cc1ccccc1): 602 nm

NC(=O)C1=CN([C@H]2C[C@H](O)[C@@H](COP(=O)([O-])OP(=O)([O-])OC[C@H]3O[C@@H](n4cnc5c(N)ncnc54)C[C@@H]3O)O2)C=CC1
absorption maximum (in O): 350 nm

CN(CCO)c1ccc(/C=C/C2=C(C#N)C(C(C#N)C#N)OC2(C)C)cc1 (stereo not drawn)
absorption maximum (in CC#N): 586 nm
absorption maximum (in CC(C)=O): 574 nm
absorption maximum (in CCO): 579 nm
absorption maximum (in CCOC(C)=O): 565 nm
absorption maximum (in CN(C)C=O): 588 nm
absorption maximum (in CO): 575 nm
absorption maximum (in CS(C)=O): 595 nm
absorption maximum (in Cc1ccccc1): 562 nm
absorption maximum (in ClCCl): 575 nm
absorption maximum (in O): 587 nm

N#Cc1c(-n2c3ccccc3c3cc(I)ccc32)c(C#N)c(-n2c3ccccc3c3cc(I)ccc32)c(-n2c3ccccc3c3cc(I)ccc32)c1-n1c2ccccc2c2cc(I)ccc21
absorption maximum (in Cc1ccccc1): 383 nm

C1=Cc2ccc3ccccc3c2N(c2ccccc2)B1c1ccccc1
absorption maximum (in C1CCCCC1): 364 nm

Nc1cc[nH]c(=S)n1
absorption maximum (in CC#N): 283 nm
absorption maximum (in CCO): 280 nm
absorption maximum (in CCOC(C)=O): 286 nm
absorption maximum (in CO): 278 nm
absorption maximum (in CS(C)=O): 285 nm
absorption maximum (in O): 269 nm

c1ccc(-c2nc(-c3ccc(-c4ccc(-c5ccc(-c6nc(-c7ccccc7)c(-c7ccccc7)o6)cc5)cc4)cc3)oc2-c2ccccc2)cc1
absorption maximum (in C1COCCO1): 352 nm

CC(C)(C)c1ccc(-n2c(-c3ccc(-c4cccc(-c5c(-c6ccccc6)nc6ccccn56)c4)cc3)nc3c4ccccc4c4ccccc4c32)cc1
absorption maximum (in ClCCl): 365 nm

Cc1cccc(-c2[nH]c(=O)n3c2-c2ccccc2C3=O)c1O
absorption maximum (in CC#N): 391 nm
absorption maximum (in CO): 395 nm
absorption maximum (in ClCCl): 392 nm

CC(C)(C)c1ccc(Oc2c3c4c(cc(Oc5ccc(C(C)(C)C)cc5)c5c6c(Oc7ccc(C(C)(C)C)cc7)c(Oc7ccc(C(C)(C)C)cc7)c7c8c(cc(Oc9ccc(C(C)(C)C)cc9)c(c(c2Oc2ccc(C(C)(C)C)cc2)c45)c86)C(=O)OC7=O)C(=O)OC3=O)cc1
absorption maximum (in ClC(Cl)Cl): 571 nm

CCCCCCOc1ccc2c(c1)C1=[N+]3C2=Cc2c4ccc(OCCCCCC)cc4c4n2[B-]3(Oc2ccccc21)Oc1ccccc1-4 (stereo not drawn)
absorption maximum (in C1CCOC1): 748 nm

Cc1cc(O)c(C(=O)/C=C/c2ccc(O)c(O)c2)c(=O)o1
absorption maximum (in CC#N): 390 nm
absorption maximum (in ClCCl): 387 nm

COc1ccc(-c2csc(-c3ccncc3)n2)cc1
absorption maximum (in CC#N): 394 nm
absorption maximum (in CCO): 340 nm
absorption maximum (in CN(C)C=O): 340 nm
absorption maximum (in CS(C)=O): 341 nm
absorption maximum (in Cc1ccccc1): 340 nm
absorption maximum (in ClCCl): 401 nm

CN(C)c1ccc(/C=C2\CCCC2=O)cc1
absorption maximum (in CC#N): 380 nm
absorption maximum (in CC(C)=O): 379 nm
absorption maximum (in CC(C)O): 390 nm
absorption maximum (in CCCCCC): 357 nm
absorption maximum (in CCCCO): 392 nm
absorption maximum (in CCCO): 394 nm
absorption maximum (in CCO): 390 nm
absorption maximum (in CCOC(C)=O): 370 nm
absorption maximum (in CCOCC): 365 nm
absorption maximum (in CN(C)C=O): 383 nm
absorption maximum (in CO): 391 nm
absorption maximum (in CS(C)=O): 383 nm
absorption maximum (in Cc1ccccc1): 373 nm
absorption maximum (in ClC(Cl)(Cl)Cl): 370 nm
absorption maximum (in ClC(Cl)Cl): 383 nm
absorption maximum (in ClCCl): 383 nm
absorption maximum (in S=C=S): 387 nm
absorption maximum (in c1ccccc1): 380 nm
absorption maximum (in c1ccncc1): 384 nm

CC1(C)C(/C=C/C=C/C=C/C=C2/N(CCCCCC(=O)O)c3ccc(S(=O)(=O)[O-])cc3C2(C)C)=[N+](CCCCCC(=O)O)c2ccc(S(=O)(=O)[O-])cc21
absorption maximum (in CO): 753 nm
absorption maximum (in O): 748 nm

N#C/C(=C\c1ccc(-c2ccncc2)cc1)c1ccc(-c2ccncc2)cc1
absorption maximum (in ClCCl): 356 nm

COc1ccc(C2=C(c3ccc(OC)cc3)C(c3ccccc3)=[N+]3C2=Nc2c(-c4ccc(OC)cc4)c(-c4ccc(OC)cc4)c(-c4ccccc4)n2[B-]3(F)F)cc1
absorption maximum (in Cc1ccccc1): 654 nm

Cc1ccc(-n2c(C)ccc2C)cc1
absorption maximum (in CC#N): 234 nm
absorption maximum (in CCCCCC): 238 nm

COc1ccc2c3c(cccc13)C(=O)c1ccccc1-2
absorption maximum (in CC(C)=O): 421.05 nm
absorption maximum (in CCCCOCCCC): 412.03 nm
absorption maximum (in CCOC(C)=O): 418.06 nm
absorption maximum (in CCOCC): 414.08 nm
absorption maximum (in Clc1ccccc1): 423.01 nm
absorption maximum (in O=C1CCCCC1): 421.94 nm

CCCC1(CCC)c2cc(-c3ccc4c(c3)C(CCC)(CCC)c3cc(-c5ccc6c(c5)C(CCC)(CCC)c5cc(C(C)(C)CC)ccc5-6)ccc3-4)ccc2-c2ccc(-c3ccc4c(c3)C(CCC)(CCC)c3cc(C(C)(C)CC)ccc3-4)cc21
absorption maximum (in C1CCCCC1): 362 nm

O=Cc1ccc(C2=C3C=c4c(oc5ccccc45)=[N+]3[B-](F)(F)n3c2cc2c4ccccc4oc23)cc1
absorption maximum (in C1CCCCC1): 592.5 nm
absorption maximum (in C1CCOC1): 589 nm
absorption maximum (in CC#N): 585.5 nm
absorption maximum (in CCOC(C)=O): 587 nm
absorption maximum (in CN(C)C=O): 589 nm
absorption maximum (in CO): 583 nm
absorption maximum (in Cc1ccccc1): 597 nm
absorption maximum (in ClCCl): 593.5 nm

O=Cc1ccc(Oc2ccc3c4c(cccc24)C(=O)N(CCO)C3=O)cc1
absorption maximum (in ClC(Cl)Cl): 355 nm

COc1ccc(C#Cc2ccc(C#N)cc2)cc1
absorption maximum (in C1COCCO1): 330 nm
absorption maximum (in CC#N): 324 nm
absorption maximum (in CCCCCC): 331 nm
absorption maximum (in CCCCCCC): 332 nm
absorption maximum (in CCCO): 328 nm
absorption maximum (in CCOC(C)=O): 328 nm
absorption maximum (in CS(C)=O): 329 nm
absorption maximum (in ClC(Cl)Cl): 332 nm
absorption maximum (in ClCCl): 330 nm

COC(=O)c1nc2cnc(N(C)C)nc2n1Cc1ccccc1
absorption maximum (in C1COCCO1): 358 nm
absorption maximum (in CC#N): 359 nm
absorption maximum (in CO): 362 nm
absorption maximum (in ClCCl): 362 nm

CCOC(=O)COc1ccc(C(c2c(C)[nH]c3ccccc23)c2c(C)[nH]c3ccccc23)cc1
absorption maximum (in C1CCCCC1): 291 nm
absorption maximum (in CC#N): 290 nm
absorption maximum (in CO): 290 nm
absorption maximum (in O): 289 nm

COc1ccc(-c2nc(-c3ccc(-c4nc(-c5ccc(OC)cc5)c(-c5ccc(OC)cc5)[nH]4)cc3)[nH]c2-c2ccc(OC)cc2)cc1
absorption maximum (in CC#N): 330 nm and 365 nm

COC(=O)c1cc(=O)n(C)c2cc(-c3ccc4c(c3)OCO4)sc12
absorption maximum (in CC#N): 400 nm
absorption maximum (in ClCCl): 404 nm

CCCCCCCCOc1ccc(-c2c3c4n(c(-c5ccc(OCCCCCCCC)cc5)c3c3n2[B-](F)(F)[n+]2c(sc5ccccc52)N=3)[B-](F)(F)[n+]2c(sc3ccccc32)N=4)cc1
absorption maximum (in ClC(Cl)Cl): 655 nm

CC(C)(C)[Si](C)(C)c1ccc([Si](C)(C)C(C)(C)C)c2ccccc12
absorption maximum (in C1CCCCC1): 302 nm

Cc1c(C)c(-c2ccc(-c3cccnc3)cc2)c(C)c(C)c1B(c1c(C)c(C)c(-c2ccc(-c3cccnc3)cc2)c(C)c1C)c1c(C)c(C)c(-c2ccc(-c3cccnc3)cc2)c(C)c1C
absorption maximum (in ClCCl): 331 nm

Cc1cc(C)c(C2=C3C=CC=[N+]3[B-]3(c4cccc5ccccc45)Oc4cc(O)cc5c6ccc(C)cc6c6cc2n3c6c45)c(C)c1 (stereo not drawn)
absorption maximum (in ClC(Cl)Cl): 646 nm

COc1ccc2c3c([nH]c2c1)C(C)=NCC3
absorption maximum (in CC#N): 328 nm
absorption maximum (in CS(C)=O): 330 nm
absorption maximum (in O): 372 nm

CCCCCCCCCCCCN1C(=O)c2ccc3c4ccc5c6c(ccc(c7ccc(c2c37)C1=O)c64)C(=O)NC5=O
absorption maximum (in CN(C)C=O): 522 nm

COc1cc2c(cc1-c1ccc(C#N)cc1)Cc1c3c(c4c(c1-2)-c1cc(OC)c(-c2ccc(C#N)cc2)cc1C4)C(=O)N(CCC(C)C)C3=O
absorption maximum (in C1CCOC1): 409 nm

c1ccc2c(c1)Sc1ccccc1N2c1ccc2c(c1)C1(CC1)c1cc(N3c4ccccc4Sc4ccccc43)ccc1-2
absorption maximum (in Cc1ccccc1): 307 nm

CN(C)c1ccc(C(=O)Nc2ccccc2)cc1
absorption maximum (in C1CCCCC1): 307 nm
absorption maximum (in C1CCOC1): 311 nm
absorption maximum (in CC#N): 314 nm
absorption maximum (in CCOCC): 307 nm

COc1ccc(C2=c3sc(-c4ccc(OC)cc4)c(-c4ccc(OC)cc4)c3=[N+]3C2=Nc2c(-c4ccc(OC)cc4)c4sc(-c5ccc(OC)cc5)c(-c5ccc(OC)cc5)c4n2[B-]3(F)F)cc1
absorption maximum (in ClC(Cl)Cl): 784 nm

CCOC(=O)c1ccc(C2CC(c3cccc4ccccc34)=NN2c2ccc(Cl)cc2)cc1 (stereo not drawn)
absorption maximum (in ClCCl): 378 nm

COc1ccc(C2=C(c3ccc(OC)cc3)c3cccc4c3c(cc3nc5ccccc5nc34)O2)cc1
absorption maximum (in ClCCl): 500 nm

CCC1=C(C)C(=O)n2c1cc1c(C)c(CCC(=O)O)c(C)n1c2=O
absorption maximum (in CC#N): 408 nm
absorption maximum (in CC(C)=O): 413 nm
absorption maximum (in CO): 425 nm
absorption maximum (in CS(C)=O): 426 nm
absorption maximum (in ClC(Cl)Cl): 428 nm
absorption maximum (in c1ccccc1): 421 nm
